Laboratory results published in US20060194814A1, “Benzamide compounds” (priority 2003, published 2006).
Where a name gives a salt, the structure may show the parent alone. Read-outs that look alike come from different tables or passages of the source.

What was measured:
HMG-CoA reductase = HMG-CoA reductase activity in procaine-treated Y1 cells; type: cell-based, mouse; design: percent inhibition of HMG-CoA reductase activity: unit of the concentration uncertain
Procedure: Cells were washed twice with ice-cold PBS and incubated with ice-cold assay buffer (0.1M sucrose, 40 mM KH2PO4, 30 mM EDTA, 50 mM KCl, 5 mM DTT, 0.25% (v/v) of Brij 96, at pH 7.4) on ice for 20 minutes. After centrifugation for 3 minutes at 14000 g (4° C.) the supernatants were collected and used for HMG-CoA reductase activity assay. […] The reaction was started by adding substrate (^14C-HMG-CoA, 0.1 Ci) and stopped after 45 minutes by adding 10-1 of HCl 6M. ^3H-mevalonolactone was also added to the samples as an extraction recovery marker. After an additional 30 minutes incubation time, to allow complete lactonization of the product, the mixture was centrifuged.

HMG-CoA reductase mRNA [1] = assay: HMG-CoA reductase mRNA expression by Q-PCR in UT-1 cells; type: cell-based, Chinese hamster
Procedure: (§1) After treatment, cells were stimulated with 1 mM dbcAMP for 24 hours. At the end of the incubation, total cell RNA was extracted using RNA STAT-60 (Tel-Test Inc, Friendswood, Tex.) according to the manufacturer's instructions. HMG-CoA reductase mRNA was quantified by Q-PCR using the ABI Prism 7700 sequence detection system (Perkin-Elmer/Applied Biosystems, Foster City, Calif.). RT reaction was performed using TaqMan® Reverse Transcription Reagents with 1 g total RNA and random hexamers as primers for each reaction according to the manufacturer's instructions. For quantifying mouse HMG-CoA reductase mRNA with Q-PCR, the primers were designed according to GenBank Accession Number BC 019782 using PE/AB Primer Express software, which is specifically designed for the selection of primers and probes. The forward primer was 5′-[…]-3′ (22 nucleotides; SEQ ID NO:1) and reverse primer was 5′-[…]-3′ (23 nucleotides; SEQ ID NO:2), respectively. The primers were synthesized by Bio-Synthesis Inc. (Lewisville, Tex.). Reactions were performed in a reaction mixture consisting of a 20 l volume solution containing 10 l SYBR® Green PCR Master Mix and 1 l primers mix (5 M each) with 2 l cDNA.

HMG-CoA reductase mRNA [2] = assay: HMG-CoA reductase mRNA expression by Q-PCR in Y1 cells; type: cell-based, mouse
Procedure: as §1

[3] = system: multi-drug resistant HIV MDR-769 strain; assay: HIV MDR 769 strain replication in HeLa cells, without pre-medication; type: cell-based
PKA = assay: dbcAMP-stimulated PKA activity (PepTag assay) in Y1 cells; type: cell-based, mouse; design: dose or concentration left out as unconfirmed
Procedure: Y1 cells were cultured in 6-well plates (2×10^5 cells per well) and treated as described above for steroid biosynthesis. At the end of the incubation, cells were washed twice with PBS and proteins were extracted using an extraction buffer (25 mM tris-HCl, pH 7.4, 0.5 mM EDTA, 0.5 mM EGTA, 10 mM -mercaptoethanol, 0.5 mM PMSF, 1 g/ml leupeptin, and 1 g/ml aprotinin). After centrifugation at 18,500 g for 15 minutes, the supernatants were kept for PKA activity assay. Samples were processed using the PepTag assay for non-radioactive detection of PKA activity following the manufacturer's recommendations (Promega Corporation, Madison, Wis.).

P-450scc = target: T1, P-450scc (Mus musculus, UniProt Q9QZ82); assay: 22R-hydroxycholesterol-induced 20á-hydroxyprogesterone synthesis in Y1 cells; type: cell-based
T1 construct: endogenous in cells; host or cells: Y1 mouse adrenal tumor cells
T1 sequence (Q9QZ82 37-526): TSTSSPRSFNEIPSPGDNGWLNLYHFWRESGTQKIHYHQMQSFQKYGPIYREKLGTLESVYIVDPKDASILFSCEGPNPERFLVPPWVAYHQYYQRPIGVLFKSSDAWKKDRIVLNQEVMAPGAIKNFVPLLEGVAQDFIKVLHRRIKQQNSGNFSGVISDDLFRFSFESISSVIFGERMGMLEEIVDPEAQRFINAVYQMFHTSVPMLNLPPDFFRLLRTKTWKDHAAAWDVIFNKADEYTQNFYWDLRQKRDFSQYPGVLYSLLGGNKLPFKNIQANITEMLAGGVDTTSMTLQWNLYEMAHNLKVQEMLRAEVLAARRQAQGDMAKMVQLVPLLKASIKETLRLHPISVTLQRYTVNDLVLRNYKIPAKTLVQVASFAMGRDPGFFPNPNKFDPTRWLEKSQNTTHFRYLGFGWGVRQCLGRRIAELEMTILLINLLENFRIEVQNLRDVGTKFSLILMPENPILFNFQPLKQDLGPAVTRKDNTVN
Procedure: […] […] The synthesis of 20 —OH progesterone and progesterone in Y1 and MA-10 cell media respectively were measured by RIA (Brown et al., 1992). H295R human adrenal tumor cells were seeded in 48-well plates at 10^5 cells/well and incubated for 24 hours. […] At the end of the incubation time period, cells were treated with 1 mM dbcAMP for 48 hours. Cortisol levels in the media were determined by radioimmunoassay as previously described (Amri et al., 1996).

HIV-1 IIIB strain = assay: HIV-1 IIIB replication in HeLa indicator cells (AV-Finder-HIV assay), no pre-medication; type: cell-based

## CCN(CC)CCOC(=O)c1ccc(N)cc1 [SP01, procaine HCl]
HMG-CoA reductase; concentration 1 (unit uncertain)
  percent inhibition of HMG-CoA reductase activity: 44%
HMG-CoA reductase; concentration 10 (unit uncertain)
  percent inhibition of HMG-CoA reductase activity: 72%
HMG-CoA reductase; concentration 100 (unit uncertain)
  percent inhibition of HMG-CoA reductase activity: 70
HMG-CoA reductase; dbcAMP stimulated
  concentration giving maximal inhibition of HMG-CoA reductase activity: 10 µM
HMG-CoA reductase mRNA [1]
  effect on HMG-CoA reductase mRNA expression: not significant
HMG-CoA reductase mRNA [2]; pretreatment for 24 hours
  effect on dbcAMP-induced HMG-CoA reductase mRNA levels: reduced in a dose-dependent manner
HMG-CoA reductase mRNA [2]; time-course
  earliest treatment time inhibiting dbcAMP-induced HMG-CoA reductase mRNA expression: 6 h
[3]
  effect on HIV MDR 769 strain replication: effectively blocked
[3]; concentrations higher than 1 nM
  effect on HIV MDR 769 strain replication: not effective
[3]; concentrations up to 1 nM
  inhibition of HIV MDR 769 viral replication: 75%
PKA
  effect on dbcAMP-stimulated PKA activity: no significant effect
P-450scc
  effect on 22R-hydroxycholesterol-induced steroidogenesis: did not inhibit
HIV-1 IIIB strain; human cells
  efficacy in reducing HIV-1 IIIB replication compared to AZT, ddI or 3TC: efficacy higher than AZT, ddI or 3TC
HIV-1 IIIB strain; no pre-medication, concentrations up to 0.1 μM
  efficacy on HIV-1 IIIB viral replication compared to 3TC: higher efficacy than the classical antiviral agent 3TC
